The record followed here is publication PMC8395767, “Worsening of the Toxic Effects of (±)Cis-4,4′-DMAR Following Its Co-Administration with (±)Trans-4,4′-DMAR: Neuro-Behavioural, Physiological, Immunohistochemical and Metabolic Studies in Mice” (International Journal of Molecular Sciences, 2021).

“And” between values parts separate entries of the source, which are not always exact repeats. Equal values may be shown once. Marks after values point to notes of the source that are not given here.

Series [1] concerns mice. As to the kind of experiment: Core temperature (rectal probe), hyperthermia. In kind it is in vivo. The protocol: (§1) The effects of (±)cis-4,4′-DMAR, (±)trans-4,4′-DMAR and their co-administration were investigated by a protocol widely used in studies of “safety pharmacology” for the preclinical characterization of new molecules in rodents. This protocol includes a series of observational behavioural tests carried out in a consecutive manner that monitor the animal responses up to 5 h after compound injections. In the present study, we reported the observation of physiological (sweating, salivation, core temperature) and neuro-behavioural (detection of psychomotor agitation, spontaneous and stimulated aggressiveness, convulsions) changes occurring in mice after injection of (±)cis-4,4′-DMAR, (±)trans-4,4′-DMAR and their co-administration. Before pharmacological treatment the mouse was placed on a square plate (30 cm× 30 cm) raised from the ground (20 cm) and left free to move on the plate for 10 min (habituation period). The animal was then injected with the vehicle, substances alone ((±)cis-4,4′-DMAR or (±)trans-4,4′-DMAR) or in cis + trans co-administration and placed on the plate. From this moment, the recording time of the physiological and neuro-behavioural responses started, and these were detected in 5-min sessions.
(§2) After the first 5 min, the animal was removed from the plate; the body core temperature was then measured, and the aggression tests were performed. The 5-min observation period was repeated at 15–30–60–90–120–180–240–300. Psychomotor agitation in the mouse was not simply related to an increase in spontaneous locomotion itself, but by an “unusual hyperactivity” which was characterised by rapid and sudden horizontal displacements in all directions, sustained turning behaviour, involuntary falls from the high plate during the evaluation of the tests, stereotyped movements and rearing activity. Mouse sweating and salivation were reported only if present or not. The core temperature was determined using a probe (1 mm diameter) that was gently inserted after lubrication with liquid Vaseline into the rectum of the mouse (to about 2 cm) and left in position until the temperature stabilised (about 10 s). The probe was connected to a digital thermometer. Spontaneous aggressive response was measured based on the number of times a mouse bit a grey cloth put in front of its snout. During the test, each mouse was free to move within the cage. In the case of stimulated aggressiveness, each mouse was manually restrained and held in a supine position following which an object was brought near the mouth. For both spontaneous and stimulated aggressive behaviour tests, a grey cloth was placed in front of the nose of each mouse 10 consecutive times (score 0/10 not aggressive, score 10/10 very aggressive). Convulsions were defined as a loss of righting reflexes for at least 5 s, combined with the presence of body tremors and clonic or tonic limb movements. Deaths caused by 4-4’-DMAR injection occurring during the observation period (5 h) were also reported as frequency (%) and time of death (min). Experiments were conducted inside the LARP (Centralised Preclinical Research Laboratory, University of Ferrara, Ferrara, Italy) in a thermo-stated (temperature 20–22 °C, humidity about 45–55%) and light controlled (about 150 lux) room, in which there was a background noise of about 40 ± 4 dB. The experiments, conducted in blind by trained observers working together in pairs, were videotaped and eventually analysed off-line by a different trained operator. The experiments were performed between 8:30 a.m. and 2:00 p.m.
(§3) Sweating and salivation were expressed as frequency (e.g., % of animals that developed symptoms); psychomotor agitation was expressed as frequency (% of animals) and duration (total time in mins). Core temperature values were expressed as the difference between control temperature (before injection) and temperature following drug administration (Δ°C). […]

Series [2] has as its system mice. As to the kind of experiment: Spontaneous and stimulated aggressiveness (bites of a grey cloth). In kind it is in vivo. As to the method: as §1, §2, §3
In the next series the test system is NF-kB. As to the kind of experiment: Immunohistochemistry, frontal cortex: NF-kB. In kind it is in vivo, mice. An excerpt:
Following the acute death or the sacrifice of the animals (after 5-h observation period by dislocation of the spine), brains were taken. These were fixed in 4% buffered formalin and then sampled and incorporated into the paraffin (Leica ASP300 processor, Histoline TEC2900 incorporator; Leica Microsystems Srl, Buccinasco, Milano, Italy). Subsequently, the cut (performed with the Leica HistoCore autocut microtome; Leica Microsystems Srl, Buccinasco, Milano, Italy) was designed to create sections with a thickness of 5 µm for each sample.
On 5-µm-thick paraffined […] sections, we evaluated the expression of a panel of markers: heat shock proteins (HSP27, HSP70, HSP90), SMAC/DIABLO, NF-kB, iNOS, NOX-2, NT, 8-OHDG.
We used a detection system composed of a biotinylated secondary antibody and HRP-conjugated streptavidin (4plus HRP Universal Detection, Biocare Medical). […] In the pictures (sections of the frontal cortex; Figure 3, Figure 4 and Figure 5) to evaluate the variation in the expression of markers (Smac, NOX2, iNOS, 8-OHdG, NT, HSP27, HSP70, HSP90) following treatments, the change in intensity of brown colour (staining of the immunohistochemical technique) in the control and treated tissue was measured. Quantification of Smac, NOX2, iNOS, 8-OHdG, NT, HSP27, HSP70 and HSP90 positive-stained areas was performed by the ImageJ software (imagej.nih.gov/ij/ Accessed date 12 May 2020). […]

[3] abbreviates: 10 mg/kg i.p., n=4 mice (animals of the urine excretion study).

As for `Cc1ccc(C2OC(N)=NC2C)cc1` (stereo not drawn) [cis-4,4’-DMAR, 4-methyl-5-(4-methylphenyl)-4,5-dihydrooxazol-2-amine], the “Hyperthermia Variation (Δ°C)” value in the series on mice [1] (0.1 mg/kg i.p., n=6 mice) is −0.18 ± 0.14 Δ°C; with mice [1] (1 mg/kg i.p., n=6 mice), −0.22 ± 0.17 Δ°C; with mice [1] (3 mg/kg i.p., n=6 mice), −0.34 ± 0.22 Δ°C; with mice [1] (setting [3]) it was −0.21 ± 0.15 Δ°C; with mice [1] (10 mg/kg i.p., n=6 mice), −0.41 ± 0.13 Δ°C; in the series on mice [1] (30 mg/kg i.p., n=6 mice), 1.52 ± 0.11 ^c Δ°C. Further, the “Hyperthermia Variation (Δ°C)” value in the series with mice [1] (30 mg/kg i.p., n=6 mice, listed as (±)cis-4,4′-DMAR) was 1.52 ± 0.11 Δ°C; in the series on mice [1] (60 mg/kg i.p., n=6 mice), 2.22 ± 0.12 ^c Δ°C and 2.22 ± 0.12 Δ°C; with mice [1] (60 mg/kg i.p., n=6 mice, listed as (±)cis-4,4′-DMAR), 2.22 ± 0.12 Δ°C. For the same compound, the “Hyperthermia Latency” value is listed as 25 ± 0.25 min with mice [1] (30 mg/kg i.p., n=6 mice) and 7.12 ± 0.23 min in the series with mice [1] (60 mg/kg i.p., n=6 mice). For the same compound, the “Hyperthermia Latency (min)” value in the series with mice [1] (60 mg/kg i.p., n=6 mice) was 7.12 ± 0.23 ^d min. The Hyperthermia result with mice [1] (lower doses 0.1–10 mg/kg i.p., mice) is given as “ineffective”. In addition, the “Aggressiveness Stimulated Frequency % (n° of mice)” value with mice [2] (setting [3]) is listed as 100% (4); in the series on mice [2] (10 mg/kg i.p., n=6 mice), 100% (6); in the series on mice [2] (30 mg/kg i.p., n=6 mice), 100% (6). The “Aggressiveness Stimulated Score (n° of bites)” value is listed as 5 ± 0.23 n° of bites in the series on mice [2] (setting [3]); 6 ± 0.23 n° of bites in the series with mice [2] (10 mg/kg i.p., n=6 mice); 10 ± 0.23 ^b n° of bites in the series on mice [2] (30 mg/kg i.p., n=6 mice). In addition, the Spontaneous aggressiveness entry in the series on mice [2] (mice, i.p., 60 mg/kg could not be tested) was “not associated with increased levels”. The “Immunoreactivity of NF-kB in the frontal cortex” value in the series on NF-kB (10, 30 and 60 mg/kg, vs control) is on record as “increased”.

In the case of `Cc1ccc(C2OC(N)=NC2C)cc1` (stereo not drawn) [trans-4,4’-DMAR, 4-methyl-5-(4-methylphenyl)-4,5-dihydrooxazol-2-amine], the “Hyperthermia Variation (Δ°C)” value in the series on mice [1] (setting [3]) is −0.32 ± 0.1 Δ°C; in the series on mice [1] (30 mg/kg i.p., n=6 mice), −0.37 ± 0.13 Δ°C; in the series with mice [1] (60 mg/kg i.p., n=6 mice), −0.35 ± 0.16 Δ°C. In addition, in the series with NF-kB (30 mg/kg alone), the “Immunoreactivity of NF-kB in the frontal cortex” value is recorded as “ineffective”.
